Consider 15 molecules from patent publication US11999727B2 (Tango Therapeutics, Inc., priority 2020, dated 2024).

Assay [1] concerns HAP1 MTAP-intact cell line. Briefly: SDMA in-cell western assay, HAP1 MTAP-intact. The note with it: Homo sapiens. Type of assay: cell-based. The method in brief: (§1)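 Readout: in-cell western detection of SDMA. Cells: HAP1 expressing endogenous MTAP and an MTAP-null HAP1 counterpart. Output: IC50.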
In assay [2] the target is T1, PRMT5 (Homo sapiens, UniProt O14744).
T1 construct: purchased Viva (custom protein)
In words: PRMT5 biochemical IC50 assay with MTA as cofactor. To be noted: PRMT5, MTA as cofactor; read-out: MTA IC50.

In assay [3] the test system is HAP1 MTAP-deleted cell line. In words: SDMA in-cell western assay, HAP1 MTAP-deleted. To be noted: for IC50: Homo sapiens; for MTAP intact/deleted ratio: IC50 ratio HAP1 MTAP-intact / HAP1 MTAP-deleted, SDMA in-cell western. Type of assay: cell-based. The method in brief:
as §1

Assay [4] has as its target T1, PRMT5. Briefly: PRMT5 biochemical IC50 assay with no cofactor. The note with it: PRMT5, no cofactor. The text has this:
Table 1 indicates IC50 values (μM) against PRMT5 for exemplary compounds in the presence of SAM as cofactor, with no cofactor, and with MTA as cofactor, respectively (columns 4-6). […] Ki values can be calculated from the IC50 values as described in the Examples section. As detailed in the Examples section, for the assay performed in the presence of SAM, IC50=Ki×1.5 (Ki=IC50/1.5).

Assay [5] concerns the target T1, PRMT5. In words: PRMT5 biochemical IC50 assay with SAM as cofactor. The note with it: PRMT5, SAM as cofactor; read-out: SAM IC50.
Assay [6] has as its system HAP1 MTAP-deleted cell line. In words: Viability assay, MTAP-deleted cell line. Format: cell-based. The note with it: Homo sapiens. The text has this:
Table 1 additionally indicates IC50 values in a viability assay for the MTAP-deleted cell line (column 10), indicating the effect of treatment with compound on cell survival.

The mark [7] stands for this setting: HAP1, SDMA in-cell western, HAP1 MTAP-intact, read-out: MTAP HAP1 intact IC50.
The mark [8] stands for this setting: HAP1, SDMA in-cell western, HAP1 MTAP-deleted, read-out: HAP1 MTAP deleted IC50.
[9] abbreviates: HAP1, viability assay, MTAP-deleted cell line, read-out: HAP1 MTAP deleted viability.
Setting [10] is: HAP1, SDMA in-cell western, HAP1 MTAP-deleted, read-out: HAP 1 MTAP deleted IC50.
Setting [11] is: HAP1, viability assay, HAP1 MTAP-deleted, read-out: HAP1 MTAP deleted viability.
The mark [12] stands for this setting: read-out: No Cofactor/ rel IC50.

Read-outs that look alike come from different tables or passages of the source.

T1 sequence (O14744 whole entry): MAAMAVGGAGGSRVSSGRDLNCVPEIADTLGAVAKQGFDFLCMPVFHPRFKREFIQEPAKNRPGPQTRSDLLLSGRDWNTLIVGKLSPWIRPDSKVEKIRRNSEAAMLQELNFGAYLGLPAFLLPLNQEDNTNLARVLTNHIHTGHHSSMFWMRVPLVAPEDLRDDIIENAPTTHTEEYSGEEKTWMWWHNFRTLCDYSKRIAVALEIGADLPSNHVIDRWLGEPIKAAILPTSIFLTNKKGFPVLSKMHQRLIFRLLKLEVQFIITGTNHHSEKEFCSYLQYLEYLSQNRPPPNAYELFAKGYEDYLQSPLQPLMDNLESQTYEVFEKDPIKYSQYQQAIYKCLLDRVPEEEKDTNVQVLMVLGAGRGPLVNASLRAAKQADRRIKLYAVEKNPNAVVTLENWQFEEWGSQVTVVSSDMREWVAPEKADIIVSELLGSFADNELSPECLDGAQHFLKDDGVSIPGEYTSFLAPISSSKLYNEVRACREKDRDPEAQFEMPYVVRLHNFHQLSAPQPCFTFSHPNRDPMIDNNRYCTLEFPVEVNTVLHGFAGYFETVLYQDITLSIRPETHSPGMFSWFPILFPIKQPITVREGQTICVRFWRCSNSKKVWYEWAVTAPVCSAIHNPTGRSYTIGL
T1 sequence (Q9BQA1 whole entry partner): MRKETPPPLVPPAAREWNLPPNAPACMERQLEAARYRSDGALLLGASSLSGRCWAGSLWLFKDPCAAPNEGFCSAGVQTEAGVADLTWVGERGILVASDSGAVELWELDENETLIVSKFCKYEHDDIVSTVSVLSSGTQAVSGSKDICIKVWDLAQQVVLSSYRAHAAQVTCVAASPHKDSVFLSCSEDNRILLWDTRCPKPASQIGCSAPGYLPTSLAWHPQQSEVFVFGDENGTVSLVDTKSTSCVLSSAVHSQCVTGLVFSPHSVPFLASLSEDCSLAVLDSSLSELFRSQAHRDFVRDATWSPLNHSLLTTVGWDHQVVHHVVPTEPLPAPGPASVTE

Consider `Cc1cc(NC(=O)C(=O)N2CC[C@@H](C#N)C[C@H]2c2ccccc2)cnc1N` (single isomer, unassigned) [Compound 399], for which the IC50 in assay [1] (setting [7]) was greater than 1 µM; at PRMT5 [2] it was less than 0.05 µM; in assay [3] (setting [8]), less than 0.1 µM; at PRMT5 [4] (read-out: No Cofactor/rel IC50), 0.05 to 0.5 µM; on PRMT5 [5] it was 0.05 to 0.5 µM; in assay [6] (setting [9]), 1 to 10 µM. The MTAP intact/deleted ratio result in assay [3] is “A (an IC50 ratio greater than or equal to 10 fold)”.

As to `CC(=O)Oc1ccc([C@H]2CC[C@H](C)CN2C(=O)C(=O)Nc2cncc(C(N)=O)c2)cc1` (single isomer, unassigned) [Compound 604, 4-(1-(2-((5-carbamoylpyridin-3-yl)amino)-2-oxoacetyl)-5-methylpiperidin-2-yl)phenyl acetate], the IC50 was 0.1 to 1 µM in assay [1] (setting [7]); 0.05 to 0.5 µM on PRMT5 [2]; less than 0.1 µM in assay [3] (setting [10]); 0.05 to 0.5 µM on PRMT5 [4] (read-out: No Cofactor/rel IC50); less than 0.05 µM at PRMT5 [5]; less than 1 µM in assay [6] (HAP1, viability IC50, MTAP-deleted cell line, read-out: HAP1 MTAP deleted viability). Further, the MTAP intact/deleted ratio entry in assay [3] was “A (an IC50 ratio greater than or equal to 10 fold)”.

Consider `COc1ncc(NC(=O)C(=O)N2C[C@@H](C)CC[C@@H]2c2csc3ccccc23)cc1C(N)=O` (racemic) [Compound 501, 5-[[2-[2-(benzothiophen-3-yl)-5-methyl-1-piperidyl]-2-oxo-acetyl]amino]-2-methoxy-pyridine-3-carboxamide], for which the IC50 in assay [1] (setting [7]) is greater than 1 µM; at PRMT5 [2], 0.05 to 0.5 µM; in assay [3] (setting [8]) it was greater than 1 µM; on PRMT5 [4] (read-out: No Cofactor/rel IC50), greater than 0.5 µM; at PRMT5 [5], greater than 0.5 µM; in assay [6] (setting [9]) it was greater than 10 µM. Moreover, the MTAP intact/deleted ratio result in assay [3] is recorded as “B (an IC50 ratio greater than or equal to 3 fold but lower than 10 fold)”.

Regarding `CNc1nc2cc([C@@H]3CC[C@@H](C)CN3C(=O)C(=O)Nc3cnc(C)c(C)c3)ccc2s1` (racemic) [Compound 828, N-(5,6-dimethyl-3-pyridyl)-2-[(2R,5S)-5-methyl-2-[2-(methylamino)-1,3-benzothiazol-5-yl]-1-piperidyl]-2-oxo-acetamide], the IC50 was greater than 1 µM in assay [1] (setting [7]); 0.05 to 0.5 µM on PRMT5 [2]; less than 0.1 µM in assay [3] (setting [8]); 0.05 to 0.5 µM on PRMT5 [4] (read-out: No Cofactor/rel IC50); 0.05 to 0.5 µM at PRMT5 [5]; 1 to 10 µM in assay [6] (setting [11]). Further, the MTAP intact/deleted ratio result in assay [3] was “A (an IC50 ratio greater than or equal to 10 fold)”.

On to `CCc1cc(NC(=O)C(=O)N2C[C@@H](C)CC[C@@H]2c2ccc3sc(CCN4CCOCC4)nc3c2)cnc1N` [Compound 1248, N-(6-amino-5-ethylpyridin-3-yl)-2-((2R,5S)-5-methyl-2-(2-(2-morpholinoethyl)benzo[d]thiazol-5-yl)piperidin-1-yl)-2-oxoacetamide], for which the IC50 is 0.1 to 1 µM in assay [1] (setting [7]); less than 0.05 µM on PRMT5 [2]; less than 0.1 µM in assay [3] (setting [10]); less than 0.05 µM on PRMT5 [4] (setting [12]); less than 0.05 µM on PRMT5 [5]; less than 1 µM in assay [6] (HAP1, viability, HAP1 MTAP-deleted cell line, read-out: HAP1 MTAP deleted viability). Also, the “MTAP intact/deleted ratio” value in assay [3] is listed as “A (an IC50 ratio greater than or equal to 10 fold)”.

On to `C[C@H]1CC[C@H](c2ccccc2)N(C(=O)C(=O)Nc2cncc(C(N)=O)c2)[C@H]1C` (single isomer, unassigned) [Compound 433], for which the IC50 in assay [1] (setting [7]) is greater than 1 µM; on PRMT5 [2], less than 0.05 µM; in assay [3] (setting [8]), less than 0.1 µM; at PRMT5 [4] (read-out: No Cofactor/rel IC50), greater than 0.5 µM; on PRMT5 [5], 0.05 to 0.5 µM; in assay [6] (setting [9]), greater than 10 µM. Besides, the MTAP intact/deleted ratio result in assay [3] is recorded as “A (an IC50 ratio greater than or equal to 10 fold)”.

Regarding `CC[C@@H]1CC[C@@H](c2ccccc2)N(C(=O)C(=O)Nc2cncc(C)c2)C1` (single isomer, unassigned) [Compound 17], the IC50 in assay [1] (setting [7]) was greater than 1 µM; at PRMT5 [2] it was 0.05 to 0.5 µM; in assay [3] (setting [10]) it was greater than 1 µM; on PRMT5 [4] (setting [12]) it was greater than 0.5 µM; on PRMT5 [5], greater than 0.5 µM; in assay [6] (setting [9]) it was greater than 10 µM. Moreover, in assay [3], the “MTAP intact/deleted ratio” value was “B (an IC50 ratio greater than or equal to 3 fold but lower than 10 fold)”.

Regarding `COc1ncc(NC(=O)C(=O)N2C[C@@H](C)CC[C@@H]2c2ccc(NC(C)=O)nc2)cc1C(N)=O` (single isomer, unassigned) [Compound 910], the IC50 in assay [1] (setting [7]) was greater than 1 µM; at PRMT5 [2], greater than 0.5 µM; in assay [3] (setting [10]), greater than 1 µM; on PRMT5 [4] (read-out: No Cofactor/rel IC50) it was greater than 0.5 µM; at PRMT5 [5], greater than 0.5 µM; in assay [6] (setting [9]) it was greater than 10 µM. In addition, the MTAP intact/deleted ratio result in assay [3] is on record as “B (an IC50 ratio greater than or equal to 3 fold but lower than 10 fold)”.

On to `[2H][C@]1(c2ccc(F)cc2)CC[C@H](C)CN1C(=O)C(=O)Nc1cncc(C(N)=O)c1` (racemic) [Compound 1008, 5-(2-(2-(4-fluorophenyl)-5-methylpiperidin-1-yl-2-d)-2-oxoacetamido)nicotinamide], for which the IC50 was greater than 1 µM in assay [1] (setting [7]); 0.05 to 0.5 µM on PRMT5 [2]; 0.1 to 1 µM in assay [3] (setting [10]); 0.05 to 0.5 µM at PRMT5 [4] (read-out: No Cofactor/rel IC50); 0.05 to 0.5 µM on PRMT5 [5]; 1 to 10 µM in assay [6] (setting [9]). In assay [3], the MTAP intact/deleted ratio entry is given as “A (an IC50 ratio greater than or equal to 10 fold)”.

As for `Cc1cc(NC(=O)C(=O)N2C[C@H](C)CC[C@H]2c2cncc(Cl)c2)cnc1N` (racemic) [Compound 1025, N-(6-amino-5-methyl-3-pyridyl)-2-[(2R,5S)-2-(5-chloro-3-pyridyl)-5-methyl-1-piperidyl]-2-oxo-acetamide], the IC50 in assay [1] (setting [7]) was greater than 1 µM; at PRMT5 [2], 0.05 to 0.5 µM; in assay [3] (setting [10]), less than 0.1 µM; on PRMT5 [4] (read-out: No Cofactor/rel IC50), 0.05 to 0.5 µM; at PRMT5 [5] it was greater than 0.5 µM; in assay [6] (setting [9]), 1 to 10 µM. Besides, the MTAP intact/deleted ratio entry in assay [3] is “A (an IC50 ratio greater than or equal to 10 fold)”.

On to `Cc1ccc([C@@H]2CC[C@@H](C)CN2C(=O)C(=O)Nc2cncc(C)c2)cc1` (single isomer, unassigned) [Compound 16], for which the IC50 was greater than 1 µM in assay [1] (setting [7]); 0.05 to 0.5 µM on PRMT5 [2]; greater than 1 µM in assay [3] (setting [10]); greater than 0.5 µM on PRMT5 [4] (setting [12]); greater than 0.5 µM at PRMT5 [5]; greater than 10 µM in assay [6] (setting [9]). The “MTAP intact/deleted ratio” value in assay [3] is given as “B (an IC50 ratio greater than or equal to 3 fold but lower than 10 fold)”.

For `N#C[C@H]1CCN(C(=O)C(=O)Nc2cncc(C(N)=O)c2)[C@@H](c2ccccc2)C1` (single isomer, unassigned) [Compound 352], the IC50 in assay [1] (setting [7]) is greater than 1 µM; on PRMT5 [2], less than 0.05 µM; in assay [3] (setting [8]), 0.1 to 1 µM; on PRMT5 [4] (read-out: No Cofactor/rel IC50) it was 0.05 to 0.5 µM; at PRMT5 [5] it was 0.05 to 0.5 µM; in assay [6] (setting [9]), greater than 10 µM. Besides, the MTAP intact/deleted ratio entry in assay [3] is on record as “A (an IC50 ratio greater than or equal to 10 fold)”.

With `C[C@@H]1CN(C(=O)C(=O)Nc2cncc(C(N)=O)c2)[C@@H](c2ccccc2)C[C@@H]1O` (racemic) [Compound 470, rac-5-[[2-[(2R,4S,5R)-4-hydroxy-5-methyl-2-phenyl-1-piperidyl]-2-oxo-acetyl]amino]pyridine-3-carboxamide], the IC50 in assay [1] (setting [7]) is greater than 1 µM; on PRMT5 [2], 0.05 to 0.5 µM; in assay [3] (setting [8]), 0.1 to 1 µM; at PRMT5 [4] (read-out: No Cofactor/rel IC50), 0.05 to 0.5 µM; at PRMT5 [5], 0.05 to 0.5 µM; in assay [6] (setting [9]), greater than 10 µM. For the same molecule, in assay [3], the MTAP intact/deleted ratio result is recorded as “A (an IC50 ratio greater than or equal to 10 fold)”.

For the molecule `COc1ncc(NC(=O)C(=O)N2C[C@@H](C)CC[C@@H]2c2ccc3[nH]cnc3c2)cc1C(N)=O` (single isomer, unassigned) [Compound 805], the IC50 is greater than 1 µM in assay [1] (setting [7]); greater than 0.5 µM on PRMT5 [2]; 0.1 to 1 µM in assay [3] (setting [8]); greater than 0.5 µM on PRMT5 [4] (read-out: No Cofactor/rel IC50); greater than 0.5 µM on PRMT5 [5]; greater than 10 µM in assay [6] (setting [11]). Moreover, in assay [3], the MTAP intact/deleted ratio entry was “A (an IC50 ratio greater than or equal to 10 fold)”.

Regarding `COc1ncc(NC(=O)C(=O)N2C[C@H](C)CC[C@H]2c2ccccc2)cc1C(N)=O` (single isomer, unassigned) [Compound 333], the IC50 was greater than 1 µM in assay [1] (HAP1, read-out: MTAP HAP1 intact IC50); less than 0.05 µM on PRMT5 [2]; less than 0.1 µM in assay [3] (HAP1, read-out: HAP1 MTAP deleted IC50); less than 0.05 µM on PRMT5 [4] (read-out: No Cofactor/rel IC50); 0.05 to 0.5 µM on PRMT5 [5]; less than 1 µM in assay [6] (HAP1, read-out: HAP1 MTAP deleted viability). Further, in assay [3], the MTAP intact/deleted ratio result is reported as “A (an IC50 ratio greater than or equal to 10 fold)”.
